# Positions of bridges follow the written chain, without caps; N, C: chain ends. Non-standard residues stand in square brackets, D forms with d. Residues, ends and D or L forms follow the SMILES beside them. *: point of attachment. Heptanoyl(6-Me) = CC(C)CCCCC(=O)*; Dab = NCC[C@H](N)C(=O)O
# Legend:
# [1] = tested on: Escherichia coli; test: Compound was tested for antibacterial activity against Escherichia coli organism; format: functional
# [2] = tested on: Staphylococcus; test: Compound was tested for antibacterial activity against Staphylococcus organism; format: functional
# [3] = tested on: Pseudomonas; test: Compound was tested for antibacterial activity against Pseudomonas organism; format: functional
# [4] = species on record: Mus musculus; test: Compound was tested for protection against Pseudomonas infection in mice; format: functional; conditions: read-out: PD50
# [5] = Compound was tested for acute toxicity in mice upon intravenous administration; format: organism-based; conditions: mouse, in vivo
# [6] = Ratio of LD50 to PD50 was evaluated.; format: ADME, organism-based; conditions: mouse, in vivo
SMILES,MIC [1],MIC [2],MIC [3],ED50 [4],LD50 [5],selectivity ratio [6]
CC(=O)NCC[C@H](NC(=O)CCCCC(C)C)C(=O)N[C@H](C(=O)N[C@@H](CCN)C(=O)N[C@H]1CCNC(=O)[C@H]([C@@H](C)O)NC(=O)[C@H](CCN)NC(=O)[C@H](CCN)NC(=O)[C@H](CC(C)C)NC(=O)[C@@H](Cc2ccccc2)NC(=O)[C@H](CCN)NC1=O)[C@@H](C)O,1.3 µg/mL,2.8 µg/mL,2.8 µg/mL,–,–,–
CC(C)CCCCC(=O)N[C@@H](CCNC(=O)[C@@H](N)CCCN=C(N)N)C(=O)N[C@H](C(=O)N[C@@H](CCN)C(=O)N[C@H]1CCNC(=O)[C@H]([C@@H](C)O)NC(=O)[C@H](CCN)NC(=O)[C@H](CCN)NC(=O)[C@H](CC(C)C)NC(=O)[C@@H](Cc2ccccc2)NC(=O)[C@H](CCN)NC1=O)[C@@H](C)O,0.453 µg/mL,4.48 µg/mL,0.207 µg/mL,–,–,–
CC(C)CCCCC(=O)N[C@@H](CCNC(=O)CN)C(=O)N[C@H](C(=O)N[C@@H](CCN)C(=O)N[C@H]1CCNC(=O)[C@H]([C@@H](C)O)NC(=O)[C@H](CCN)NC(=O)[C@H](CCN)NC(=O)[C@H](CC(C)C)NC(=O)[C@@H](Cc2ccccc2)NC(=O)[C@H](CCN)NC1=O)[C@@H](C)O [listing 1 of 2 here],0.028 µg/mL,8 µg/mL,0.033 µg/mL,7 mg/kg,–,–
CCN(CC)CC[C@H](NC(=O)CCCCC(C)C)C(=O)N[C@H](C(=O)N[C@@H](CCN)C(=O)N[C@H]1CCNC(=O)[C@H]([C@@H](C)O)NC(=O)[C@H](CCN)NC(=O)[C@H](CCN)NC(=O)[C@H](CC(C)C)NC(=O)[C@@H](Cc2ccccc2)NC(=O)[C@H](CCN)NC1=O)[C@@H](C)O,0.208 µg/mL,2.4 µg/mL,0.206 µg/mL,–,–,–
CC(C)CCCCC(=O)N[C@@H](CCN)C(=O)N[C@H](C(=O)N[C@@H](CCN)C(=O)N[C@H]1CCNC(=O)[C@H]([C@@H](C)O)NC(=O)[C@H](CCNC(=O)[C@@H](N)CS)NC(=O)[C@H](CCN)NC(=O)[C@H](CC(C)C)NC(=O)[C@@H](Cc2ccccc2)NC(=O)[C@H](CCN)NC1=O)[C@@H](C)O,1.68 µg/mL,11.3 µg/mL,2.82 µg/mL,–,–,–
CC(C)CCCCC(=O)N[C@@H](CCN)C(=O)N[C@H](C(=O)N[C@@H](CCN)C(=O)N[C@H]1CCNC(=O)[C@H]([C@@H](C)O)NC(=O)[C@H](CCNC(=O)CCl)NC(=O)[C@H](CCN)NC(=O)[C@H](CC(C)C)NC(=O)[C@@H](Cc2ccccc2)NC(=O)[C@H](CCN)NC1=O)[C@@H](C)O,0.454 µg/mL,9.5 µg/mL,0.085 µg/mL,–,–,–
CC(C)CCCCC(=O)N[C@@H](CCN)C(=O)N[C@H](C(=O)N[C@@H](CCN)C(=O)N[C@H]1CCNC(=O)[C@H]([C@@H](C)O)NC(=O)[C@H](CCNC(=O)[C@@H](N)CCCN=C(N)N)NC(=O)[C@H](CCN)NC(=O)[C@H](CC(C)C)NC(=O)[C@@H](Cc2ccccc2)NC(=O)[C@H](CCN)NC1=O)[C@@H](C)O,0.16 µg/mL,2 µg/mL,0.03 µg/mL,0.25 mg/kg,15 mg/kg,60
CC(C)CCCCC(=O)N[C@@H](CCN)C(=O)N[C@H](C(=O)N[C@@H](CCN)C(=O)N[C@H]1CCNC(=O)[C@H]([C@@H](C)O)NC(=O)[C@H](CCN)NC(=O)[C@H](CCN)NC(=O)[C@H](CC(C)C)NC(=O)[C@@H](Cc2ccccc2)NC(=O)[C@H](CCN)NC1=O)[C@@H](C)O ({Heptanoyl(6-Me)}-[Dab]T[Dab][Dab][Dab][dF]L[Dab][Dab]T; lactam 4-C) [listing 1 of 2 here],–,–,–,–,9 mg/kg,4.5
CCNCC[C@@H]1NC(=O)[C@H](CCN)NC(=O)[C@H](CC(C)C)NC(=O)[C@@H](Cc2ccccc2)NC(=O)[C@H](CCN)NC(=O)[C@@H](NC(=O)[C@H](CCN)NC(=O)[C@@H](NC(=O)[C@H](CCN)NC(=O)CCCCC(C)C)[C@@H](C)O)CCNC(=O)[C@H]([C@@H](C)O)NC1=O,0.492 µg/mL,9.5 µg/mL,0.413 µg/mL,–,–,–
CC(C)CCCCC(=O)N[C@@H](CCN)C(=O)N[C@H](C(=O)N[C@@H](CCN)C(=O)N[C@H]1CCNC(=O)[C@H]([C@@H](C)O)NC(=O)[C@H](CCN)NC(=O)[C@H](CCN)NC(=O)[C@H](CC(C)C)NC(=O)[C@@H](Cc2ccccc2)NC(=O)[C@H](CCN)NC1=O)[C@@H](C)O ({Heptanoyl(6-Me)}-[Dab]T[Dab][Dab][Dab][dF]L[Dab][Dab]T; lactam 4-C) [listing 2 of 2 here],0.026 µg/mL,2.8 µg/mL,0.051 µg/mL,2 mg/kg,–,–
CCN(CC)CC[C@@H]1NC(=O)[C@H](CCN)NC(=O)[C@H](CC(C)C)NC(=O)[C@@H](Cc2ccccc2)NC(=O)[C@H](CCN)NC(=O)[C@@H](NC(=O)[C@H](CCN)NC(=O)[C@@H](NC(=O)[C@H](CCN)NC(=O)CCCCC(C)C)[C@@H](C)O)CCNC(=O)[C@H]([C@@H](C)O)NC1=O,0.995 µg/mL,9.5 µg/mL,0.763 µg/mL,–,–,–
CSCC[C@H](N)C(=O)NCC[C@@H]1NC(=O)[C@H](CCN)NC(=O)[C@H](CC(C)C)NC(=O)[C@@H](Cc2ccccc2)NC(=O)[C@H](CCN)NC(=O)[C@@H](NC(=O)[C@H](CCN)NC(=O)[C@@H](NC(=O)[C@H](CCN)NC(=O)CCCCC(C)C)[C@@H](C)O)CCNC(=O)[C@H]([C@@H](C)O)NC1=O,0.77 µg/mL,5.65 µg/mL,0.416 µg/mL,–,–,–
CC(C)CCCCC(=O)N[C@@H](CCNC(=O)CN)C(=O)N[C@H](C(=O)N[C@@H](CCN)C(=O)N[C@H]1CCNC(=O)[C@H]([C@@H](C)O)NC(=O)[C@H](CCN)NC(=O)[C@H](CCN)NC(=O)[C@H](CC(C)C)NC(=O)[C@@H](Cc2ccccc2)NC(=O)[C@H](CCN)NC1=O)[C@@H](C)O [listing 2 of 2 here],–,–,–,–,20 mg/kg,2.8
CC(C)CCCCC(=O)N[C@@H](CCN)C(=O)N[C@H](C(=O)N[C@@H](CCN)C(=O)N[C@H]1CCNC(=O)[C@H]([C@@H](C)O)NC(=O)[C@H](CCNC(=O)[C@@H](N)CCCCN)NC(=O)[C@H](CCN)NC(=O)[C@H](CC(C)C)NC(=O)[C@@H](Cc2ccccc2)NC(=O)[C@H](CCN)NC1=O)[C@@H](C)O,0.173 µg/mL,2.8 µg/mL,0.032 µg/mL,–,–,–
CC(C)CCCCC(=O)N[C@@H](CCN)C(=O)N[C@H](C(=O)N[C@@H](CCN)C(=O)N[C@H]1CCNC(=O)[C@H]([C@@H](C)O)NC(=O)[C@H](CCNC(=O)[C@@H](N)CCC/N=C(/N)N[N+](=O)[O-])NC(=O)[C@H](CCN)NC(=O)[C@H](CC(C)C)NC(=O)[C@@H](Cc2ccccc2)NC(=O)[C@H](CCN)NC1=O)[C@@H](C)O,1.3 µg/mL,1.2 µg/mL,2.6 µg/mL,–,–,–
CCC(C)CCCCC(=O)NCC[C@@H]1NC(=O)[C@H](CCN)NC(=O)[C@H](CC(C)C)NC(=O)[C@@H](Cc2ccccc2)NC(=O)[C@H](CCN)NC(=O)[C@@H](NC(=O)[C@H](CCN)NC(=O)[C@@H](NC(=O)[C@H](CCN)NC(=O)CCCCC(C)C)[C@@H](C)O)CCNC(=O)[C@H]([C@@H](C)O)NC1=O (stereo partly specified),3.1 µg/mL,0.7 µg/mL,2.18 µg/mL,–,–,–
CCNCC[C@H](NC(=O)CCCCC(C)C)C(=O)N[C@H](C(=O)N[C@@H](CCN)C(=O)N[C@H]1CCNC(=O)[C@H]([C@@H](C)O)NC(=O)[C@H](CCN)NC(=O)[C@H](CCN)NC(=O)[C@H](CC(C)C)NC(=O)[C@@H](Cc2ccccc2)NC(=O)[C@H](CCN)NC1=O)[C@@H](C)O,0.112 µg/mL,2.3 µg/mL,0.146 µg/mL,–,–,–
CC(C)CCCCC(=O)N[C@@H](CCN)C(=O)N[C@H](C(=O)N[C@@H](CCN)C(=O)N[C@H]1CCNC(=O)[C@H]([C@@H](C)O)NC(=O)[C@H](CCN(CC(=O)O)CC(=O)O)NC(=O)[C@H](CCN)NC(=O)[C@H](CC(C)C)NC(=O)[C@@H](Cc2ccccc2)NC(=O)[C@H](CCN)NC1=O)[C@@H](C)O,1.19 µg/mL,22.6 µg/mL,0.318 µg/mL,–,–,–
CC(C)CCCCC(=O)N[C@@H](CCN)C(=O)N[C@H](C(=O)N[C@@H](CCN)C(=O)N[C@H]1CCNC(=O)[C@H]([C@@H](C)O)NC(=O)[C@H](CCN(C)C)NC(=O)[C@H](CCN)NC(=O)[C@H](CC(C)C)NC(=O)[C@@H](Cc2ccccc2)NC(=O)[C@H](CCN)NC1=O)[C@@H](C)O,0.537 µg/mL,16 µg/mL,0.456 µg/mL,–,–,–
CC(C)CCCCC(=O)N[C@@H](CCN)C(=O)N[C@H](C(=O)N[C@@H](CCN)C(=O)N[C@H]1CCNC(=O)[C@H]([C@@H](C)O)NC(=O)[C@H](CCNC(=O)CO)NC(=O)[C@H](CCN)NC(=O)[C@H](CC(C)C)NC(=O)[C@@H](Cc2ccccc2)NC(=O)[C@H](CCN)NC1=O)[C@@H](C)O,1.54 µg/mL,22.6 µg/mL,1.53 µg/mL,–,–,–
CC(C)CCCCC(=O)N[C@@H](CCN)C(=O)N[C@H](C(=O)N[C@@H](CCN)C(=O)N[C@H]1CCNC(=O)[C@H]([C@@H](C)O)NC(=O)[C@H](CCNC(=O)C(Cl)Cl)NC(=O)[C@H](CCN)NC(=O)[C@H](CC(C)C)NC(=O)[C@@H](Cc2ccccc2)NC(=O)[C@H](CCN)NC1=O)[C@@H](C)O,1.54 µg/mL,0.82 µg/mL,0.995 µg/mL,–,–,–
